Data: ChEMBL document CHEMBL5316264, “Identification of N- and C-3-Modified Laudanosoline Derivatives as Novel Influenza PAN Endonuclease Inhibitors” (J Med Chem, 2023)
pIC50: −log10 of the molar value.

Biological target: Polymerase acidic protein (Influenza A virus (A/Puerto Rico/8/1934(H1N1)), UniProt P03433)
Conditions: hek293t

## CCCOC(=O)[C@@H]1Cc2cc(O)c(O)cc2[C@H](Cc2ccc(O)c(O)c2)N1C(=O)c1ccccc1Cl
  pIC50: 4.97

## O=C1c2c(O)c(=O)ccn2N([C@@H]2c3ccccc3SCc3c2ccc(F)c3F)[C@@H]2COCCN12 [BALOXAVIR]
  pIC50: 3.52
